± gives the standard deviation of the averaged measurements.
Legend:
Test in all cases: level (log10 ratio to DMSO vehicle control); higher = higher biomarker level / cell amount than vehicle control
[1] = compound: C=C(C)C(=O)OCCC(F)(F)C(F)(F)C(F)(F)C(F)(F)C(F)(C(F)(F)F)C(F)(F)F [(Perfluoro-5-methylhexyl)ethyl 2-methylprop-2-enoate]; conditions: in DMSO
Method: (§1)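 BioMAP Diversity Plus panel of 12 human primary cell co-culture systems (3C, 4H, LPS, SAg, BT, BF4T, BE3C, CASM3C, HDF3CGF, KF3CT, MyoF, Mphg). Compounds were added 1 h before stimulation and left for 24 h (MyoF 48 h; BT 72 h for soluble read-outs or 6 d for IgG). Biomarkers were read by ELISA, cytotoxicity by SRB, PBMC viability and proliferation by Alamar Blue. Each well value was divided by the mean of 8 DMSO control wells on the same plate and log10 transformed; duplicate blinded samples were tested at 4 concentrations.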

[2] = compound: NC(=O)C(F)(F)C(F)(F)F [Pentafluoropropionamide]; conditions: in DMSO
Method: as §1

[3] = compound: O=C(O)C(F)(F)C(F)(F)C(F)(F)C(F)(F)C(F)(F)C(F)(F)F [Perfluoroheptanoic acid]; conditions: in DMSO
Method: as §1

[4] = compound: O=C(O)C(F)(F)C(F)(F)C(F)F [4H-Perfluorobutanoic acid]; conditions: in DMSO
Method: as §1

[5] = compound: O=C(O)C(F)(F)C(F)(F)F [Perfluoropropanoic acid]; conditions: in DMSO
Method: as §1

[6] = compound: OCC(F)(F)OC(F)(F)C(F)(F)OC(F)(F)CO [1H,1H,8H,8H-Perfluoro-3,6-dioxaoctane-1,8-diol]; conditions: in DMSO
Method: as §1

[7] = compound: OCCC(F)(F)C(F)(F)C(F)(F)C(F)(F)C(F)(F)C(F)(F)F [6:2 Fluorotelomer alcohol]; conditions: in DMSO
Method: as §1

[8] = compound: OCCCC(F)(F)C(F)(F)C(F)(F)C(F)(F)C(F)(F)C(F)(F)C(F)(F)F [7:3 Fluorotelomer alcohol]; conditions: 6700 nM; in DMSO
Method: as §1

Test System	level (log10) ([1]; 6700 nM)	level (log10) ([1]; 20000 nM)	level (log10) ([2]; 6700 nM)	level (log10) ([2]; 20000 nM)	level (log10) ([2]; 60000 nM)	level (log10) ([3]; 6700 nM)	level (log10) ([3]; 20000 nM)	level (log10) ([3]; 60000 nM)	level (log10) ([4]; 6700 nM)	level (log10) ([4]; 20000 nM)	level (log10) ([4]; 60000 nM)	level (log10) ([5]; 6700 nM)	level (log10) ([5]; 20000 nM)	level (log10) ([5]; 60000 nM)	level (log10) ([6]; 6700 nM)	level (log10) ([6]; 20000 nM)	level (log10) ([6]; 60000 nM)	level (log10) ([7]; 6700 nM)	level (log10) ([7]; 20000 nM)	level (log10) [8]
BE3C:IL-1alpha	-0.017 ± 0.0057	-0.009 ± 0.0014	0.0095 ± 0.022	0.003 ± 0.014	0.0295 ± 0.0035	-0.0185 ± 0.029	-0.0065 ± 0.03	0.0115 ± 0.0064	-0.0325 ± 0.0064	-0.018 ± 0.025	-0.0045 ± 0.079	-0.019 ± 0.016	-0.021 ± 0.04	-0.0115 ± 0.023	0.0105 ± 0.032	0.0055 ± 0.016	0.003 ± 0.0014	0.019 ± 0.016	0.008 ± 0.0057	-0.002 ± 0.014
BF4T:CCL2/MCP-1	0.012 ± 0.011	0.0275 ± 0.005	-0.0075 ± 0.0035	-0.0195 ± 0.00071	0.001 ± 0.025	0.0155 ± 0.056	0.019 ± 0.067	0.0365 ± 0.12	-0.012 ± 0.0085	0.004 ± 0.011	0.0475 ± 0.069	-0.0125 ± 0.011	-0.0095 ± 0.005	0.061 ± 0.083	0.015 ± 0.028	0.012 ± 0.027	0.0085 ± 0.00071	0.024 ± 0.033	0.02 ± 0.014	-0.0115 ± 0.019
BF4T:CCL26/Eotaxin-3	-0.0125 ± 0.0064	0.016 ± 0.044	-0.009 ± 0.017	-0.0155 ± 0.023	-0.0135 ± 0.011	0.0145 ± 0.019	-0.0055 ± 0.013	-0.031 ± 0.081	-0.035 ± 0.011	0.0085 ± 0.0035	-0.0115 ± 0.063	-0.004 ± 0.031	-0.0105 ± 0.04	0.03 ± 0.044	0.0155 ± 0.0092	0.005 ± 0.035	0.024 ± 0.044	-0.0055 ± 0.15	-0.023 ± 0.081	-0.088 ± 0.17
BF4T:CD54/ICAM-1	-0.0065 ± 0.015	-0.017 ± 0.0099	-0.021 ± 0.018	-0.007 ± 0.014	-0.019 ± 0.017	-0.022 ± 0.0071	-0.011 ± 0.0085	0.004 ± 0.0071	0.002 ± 0.0085	-0.0025 ± 0.032	0.0075 ± 0.032	0.006 ± 0.021	-0.0045 ± 0.047	0.018 ± 0.027	-0.005 ± 0.0057	0.008 ± 0.0028	-0.0005 ± 0.0035	-0.004 ± 0.0014	-0.0025 ± 0.011	-0.0065 ± 0.022
BF4T:CD90	0.011	0 ± 0.0085	-0.0025 ± 0.0064	0.0005 ± 0.0064	-0.0045 ± 0.015	-0.01 ± 0.0042	-0.001 ± 0.0014	-0.0005 ± 0.0021	0.0045 ± 0.0035	0.0095 ± 0.011	0.01 ± 0.028	-0.003 ± 0.014	0.003 ± 0.0014	0 ± 0.016	-0.008 ± 0.027	-0.008 ± 0.011	-0.0015 ± 0.011	-0.0035 ± 0.0021	-0.0165 ± 0.011	-0.004 ± 0.0028
BF4T:CD106/VCAM-1	-0.012 ± 0.02	0.0325 ± 0.036	-0.001 ± 0.018	-0.0045 ± 0.0021	-0.016 ± 0.0071	-0.0015 ± 0.029	0.0115 ± 0.015	0.029 ± 0.0099	0.0145 ± 0.033	-0.0365 ± 0.054	0.028 ± 0.078	-0.021 ± 0.065	0.003 ± 0.072	0.026 ± 0.095	-0.0125 ± 0.015	-0.006 ± 0.027	0.0245 ± 0.053	-0.0195 ± 0.042	-0.0525 ± 0.028	-0.0255 ± 0.0021
BF4T:CXCL8/IL-8	0.067 ± 0.037	0.035 ± 0.027	0.019 ± 0.028	0.0175 ± 0.022	0.02 ± 0.02	0.017 ± 0.028	0.0155 ± 0.013	0.0145 ± 0.036	0.0385 ± 0.0078	0.046 ± 0.024	0.0445 ± 0.04	0.043 ± 0.037	0.033 ± 0.035	0.046 ± 0.052	0.0225 ± 0.029	-0.0005 ± 0.029	0 ± 0.023	0.0185 ± 0.015	0.0005 ± 0.005	0.0165 ± 0.029

Source: the supplement of paper PMC10331698
